The NIST ThermoML archive (doi:10.1016/j.fluid.2006.11.005)

Assay: xn = mol fraction of the nth substance listed
Conditions: 101.33 kPa, Liquid

ClC(Cl)Cl [trichloromethane] + CCO
mass density [kg/m3]
Conditions | 288.15 K | 293.15 K | 298.15 K | 303.15 K | 308.15 K | 313.15 K
x2 = 0 | 1498.08 | 1488.64 | 1479.15 | 1469.61 | 1460.03 | 1450.41
x2 = 0.0485 | 1472.17 | 1462.84 | 1453.46 | 1444.03 | 1434.55 | 1425.03
x2 = 0.0997 | 1444.69 | 1435.55 | 1426.28 | 1416.99 | 1407.64 | 1398.25
x2 = 0.1993 | 1389.44 | 1380.64 | 1371.77 | 1362.83 | 1353.83 | 1344.78
x2 = 0.2999 | 1331.01 | 1322.64 | 1314.2 | 1305.7 | 1297.12 | 1288.5
x2 = 0.4002 | 1269.36 | 1261.46 | 1253.5 | 1245.47 | 1237.37 | 1229.18
x2 = 0.4984 | 1204.89 | 1197.52 | 1190.08 | 1182.57 | 1174.99 | 1167.34
x2 = 0.5504 | 1168.93 | 1161.84 | 1154.69 | 1147.44 | 1140.19 | 1132.84
x2 = 0.6001 | 1133.49 | 1126.69 | 1119.83 | 1112.9 | 1105.9 | 1098.85
x2 = 0.6949 | 1062.09 | 1055.88 | 1049.61 | 1043.28 | 1036.89 | 1030.44
x2 = 0.794 | 981.537 | 976.02 | 970.455 | 964.839 | 959.165 | 953.436
x2 = 0.8503 | 933.183 | 927.998 | 922.772 | 917.5 | 912.175 | 906.798
x2 = 0.9001 | 888.356 | 883.494 | 878.595 | 873.653 | 868.659 | 863.612
